Assay results: ChEMBL document CHEMBL5380832, “Serine-/Cysteine-Based sp2-Iminoglycolipids as Novel TLR4 Agonists: Evaluation of Their Adjuvancy and Immunotherapeutic Properties in a Murine Model of Asthma” (J Med Chem, 2023)
Active and inactive are the calls of the source. No cut-off for these calls is given here.

Legend:
Splenocyte [1] = test: Immunostimulatory activity in wild-type C57BL/6JNarl mouse splenocytes assessed as increase in IFN-gamma expression level at 10 to 25 uM incubated for 48 hrs by ELISA; format: functional, cell-based; details: dose 10-25 µM
Splenocyte [2] = test: Immunostimulatory activity in wild-type C57BL/6JNarl mouse splenocytes assessed as increase in IL-6 expression level at 10 to 25 uM incubated for 48 hrs by ELISA; format: functional, cell-based; details: dose 10-25 µM
Splenocyte [3] = test: Immunostimulatory activity in MyD88 knockout C57BL/6JNarl mouse splenocytes assessed as increase in IFN-gamma expression level at 10 to 25 uM incubated for 48 hrs by ELISA; format: functional, cell-based; details: dose 10-25 µM
Splenocyte [4] = test: Immunostimulatory activity in MyD88 knockout C57BL/6JNarl mouse splenocytes assessed as increase in IL-6 expression level at 10 to 25 uM incubated for 48 hrs by ELISA; format: functional, cell-based; details: dose 10-25 µM
[5] = target: Toll-like receptor 4 (Homo sapiens) (UniProt O00206); test: Agonist activity at human TLR4 expressed in human HEK293 cells co-expressing human MD-2 and CD14 assessed as IL-8 expression level at 10 to 25 uM incubated for 24 hrs by ELISA; format: cell-based; details: filed as agonist, dose 10-25 µM
[6] = target: Toll-like receptor 4 (Homo sapiens) (UniProt O00206); test: Activation of TLR4 signaling in human HEK293 cells assessed as IL-8 expression level at 10 to 25 uM incubated for 24 hrs by ELISA; format: cell-based; details: dose 10-25 µM
[7] = target: Toll-like receptor 4 (Homo sapiens) (UniProt O00206); test: Activation of TLR4 signaling in human HEK293 cells expressing human MD-2 and CD14 assessed as IL-8 expression level at 10 to 25 uM incubated for 24 hrs by ELISA; format: cell-based; details: dose 10-25 µM
[8] = target: Toll-like receptor 2 (Homo sapiens) (UniProt O60603); test: Agonist activity at human TLR2 expressed in human HEK293 cells assessed as IL-8 expression level at 10 to 25 uM incubated for 24 hrs by ELISA; format: cell-based; details: dose 10-25 µM
Splenocyte [9] = test: Cytotoxicity in wild-type C57BL/6JNarl mouse splenocytes assessed as reduction in cell viability at 25 uM by MTT assay; format: toxicity, cell-based
HEK293 = test: Cytotoxicity in human HEK293 cells assessed as reduction in cell viability at 25 uM by MTT assay; format: toxicity, cell-based; details: hek293, 25 µM
[10] = target: T1, Antigen-presenting glycoprotein CD1d1 (Mus musculus) (UniProt P11609); test: Activation of CD1d signaling in mouse iNKT hybridoma DN3A4-1.2 cells co-cultured with mouse A20 cells expressing CD1d assessed as IL-2 expression level at 10 to 25 uM incubated for 24 hrs by ELISA; format: cell-based; details: iNKT hybridoma DN3A4-1.2 cell, dose 10-25 µM
T1 sequence (whole entry): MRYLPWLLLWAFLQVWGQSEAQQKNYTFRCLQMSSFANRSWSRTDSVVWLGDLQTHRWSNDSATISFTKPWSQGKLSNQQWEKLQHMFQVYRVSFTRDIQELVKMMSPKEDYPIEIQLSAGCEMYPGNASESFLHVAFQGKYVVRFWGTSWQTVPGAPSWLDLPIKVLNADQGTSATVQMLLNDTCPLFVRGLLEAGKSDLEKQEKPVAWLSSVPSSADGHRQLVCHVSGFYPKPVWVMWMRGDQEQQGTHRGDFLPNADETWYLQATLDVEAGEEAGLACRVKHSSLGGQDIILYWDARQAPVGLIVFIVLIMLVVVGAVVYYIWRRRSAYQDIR

[11] = target: T1, Antigen-presenting glycoprotein CD1d1 (Mus musculus); test: Binding affinity to mouse CD1d in alpha-GalCer stimulated mouse iNKT hybridoma DN3A4-1.2 cells expressing co-cultured with mouse A20 cells expressing mouse CD1d assessed as inhibition of alpha-GlaCer activity by measuring IL-2 expression level at 10 to 25 uM incubated for 24 hrs by ELISA; format: cell-based; details: iNKT hybridoma DN3A4-1.2 cell, dose 10-25 µM
PBMC [12] = test: Immunostimulatory activity in human PBMC cells assessed as increase in IFN-gamma expression level at 10 to 25 uM by ELISA; format: functional, cell-based; details: dose 10-25 µM
PBMC [13] = test: Immunostimulatory activity in human PBMC cells assessed as increase in IL-6 expression level at 10 to 25 uM by ELISA; format: functional, cell-based; details: dose 10-25 µM
Mus musculus [14] = test: Immunostimulatory activity in C57BL/6JNarl mouse assessed as increase in IFN-gamma expression level in serum at 20 microg/g, ip and measured after 2 hrs by ELISA; format: functional, organism-based; details: dose 20.0 µg/g
Mus musculus [15] = test: Immunostimulatory activity in C57BL/6JNarl mouse assessed as increase in IL-4 expression level in serum at 20 microg/g, ip and measured after 2 hrs by ELISA; format: functional, organism-based; details: dose 20.0 µg/g
Mus musculus [16] = test: Immunostimulatory activity in C57BL/6JNarl mouse assessed as increase in IFN-gamma expression level in serum at 20 microg/g, ip and measured after 18 hrs by ELISA; format: functional, organism-based; details: dose 20.0 µg/g
Mus musculus [17] = test: Immunostimulatory activity in C57BL/6JNarl mouse assessed as increase in IL-4 expression level in serum at 20 microg/g, ip and measured after 18 hrs by ELISA; format: functional, organism-based; details: dose 20.0 µg/g
Mus musculus [18] = test: Immuno-adjuvant activity in C57BL/6JNarl mouse […] with OT-1 mouse splenocytes assessed as fold increase in OVA-specific CD8+ T cell proliferation at 20 microg/g, ip in presence of OVA (257 to 264 residues) peptide treatment by flow cytometry relative to control; format: functional; details: dose 20 µg/g
Mus musculus [19] = test: Immunomodulatory activity in OVA-sensitized asthmatic BALB/c mouse model assessed as inhibition of methacholine induced airway hyperreactivity by measuring pulmonary resistance at 20 microg/g, ip administered after day 14 OVA sensitization; format: functional; set-up: scale not given: the % may be the effect or the level left; details: dose 20 µg/g
Mus musculus [20] = test: Immunomodulatory activity in OVA-sensitized asthmatic BALB/c mouse model assessed as reduction in IL-4 expression level in BALF at 20 microg/g, ip administered after day 14 OVA sensitization by ELISA; format: functional, organism-based; details: dose 20.0 µg/g
Mus musculus [21] = test: Immunomodulatory activity in OVA-sensitized asthmatic BALB/c mouse model assessed as reduction in IL-4 expression level in lung at 20 microg/g, ip administered after day 14 OVA sensitization by ELISA; format: functional, organism-based; details: dose 20.0 µg/g
Mus musculus [22] = test: Anti-inflammatory activity in OVA-sensitized asthmatic BALB/c mouse model assessed as reduction in IL-13 expression level in BALF at 20 microg/g, ip administered after day 14 OVA sensitization by ELISA; format: functional, organism-based; details: dose 20.0 µg/g
Mus musculus [23] = test: Anti-inflammatory activity in OVA-sensitized asthmatic BALB/c mouse model assessed as reduction in IL-13 expression level in lung at 20 microg/g, ip administered after day 14 OVA sensitization by ELISA; format: functional, organism-based; details: dose 20.0 µg/g
[24] = Induction of wild type C57BL/6JNarl mouse BMDC cells maturation assessed as increase in CD86 expression at 10 uM by flow cytometry (Rvb= 10.6%); format: functional
[25] = Induction of wild type C57BL/6JNarl mouse BMDC cells maturation assessed as increase in CD86 expression at 50 uM by flow cytometry (Rvb= 10.6%); format: functional
[26] = Induction of MyD88 knockout C57BL/6JNarl mouse BMDC cells maturation assessed as increase in CD86 expression at 50 uM by flow cytometry (Rvb= 15%); format: functional
BMDC [27] = test: Induction of wild type C57BL/6JNarl mouse BMDC cells maturation assessed as increase in IL-12p40 expression level at 10 to 50 uM by ELISA; format: functional, cell-based; details: dose 10-50 µM
BMDC [28] = test: Induction of MyD88 knockout C57BL/6JNarl mouse BMDC cells maturation assessed as increase in IL-12p40 expression level at 10 to 50 uM by ELISA; format: functional, cell-based; details: dose 10-50 µM
Mus musculus [29] = test: Immunostimulatory activity in C57BL/6JNarl mouse assessed as increase in Cd86 mRNA expression level in spleen at 20 microg/g, ip by RT-qPCR analysis; format: functional, organism-based; details: dose 20.0 µg/g
Mus musculus [30] = test: Immunostimulatory activity in C57BL/6JNarl mouse assessed as increase in IL-4 mRNA expression level in spleen at 20 microg/g, ip by RT-qPCR analysis; format: functional, organism-based; details: dose 20.0 µg/g

Toll-like receptor 2 (Homo sapiens), sequence (O60603 whole entry): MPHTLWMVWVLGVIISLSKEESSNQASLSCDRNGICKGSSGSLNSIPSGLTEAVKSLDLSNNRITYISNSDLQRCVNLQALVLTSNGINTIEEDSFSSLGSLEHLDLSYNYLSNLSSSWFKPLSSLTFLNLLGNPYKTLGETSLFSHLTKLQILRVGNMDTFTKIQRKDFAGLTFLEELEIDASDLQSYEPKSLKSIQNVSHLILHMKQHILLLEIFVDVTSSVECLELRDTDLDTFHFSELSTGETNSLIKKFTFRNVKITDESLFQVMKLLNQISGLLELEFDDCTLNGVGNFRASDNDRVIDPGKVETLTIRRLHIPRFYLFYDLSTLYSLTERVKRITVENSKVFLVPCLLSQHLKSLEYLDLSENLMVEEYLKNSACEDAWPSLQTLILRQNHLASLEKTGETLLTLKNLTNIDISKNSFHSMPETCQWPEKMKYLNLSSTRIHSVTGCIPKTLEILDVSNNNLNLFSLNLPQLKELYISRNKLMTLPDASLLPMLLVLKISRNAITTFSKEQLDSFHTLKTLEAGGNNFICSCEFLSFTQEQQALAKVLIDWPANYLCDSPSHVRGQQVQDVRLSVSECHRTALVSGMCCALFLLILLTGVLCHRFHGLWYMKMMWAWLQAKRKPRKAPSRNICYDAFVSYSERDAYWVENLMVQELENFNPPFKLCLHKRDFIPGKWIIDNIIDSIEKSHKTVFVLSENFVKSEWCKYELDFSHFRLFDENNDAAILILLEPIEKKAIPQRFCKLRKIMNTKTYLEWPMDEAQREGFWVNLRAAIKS
Toll-like receptor 4 (Homo sapiens), sequence (O00206 whole entry): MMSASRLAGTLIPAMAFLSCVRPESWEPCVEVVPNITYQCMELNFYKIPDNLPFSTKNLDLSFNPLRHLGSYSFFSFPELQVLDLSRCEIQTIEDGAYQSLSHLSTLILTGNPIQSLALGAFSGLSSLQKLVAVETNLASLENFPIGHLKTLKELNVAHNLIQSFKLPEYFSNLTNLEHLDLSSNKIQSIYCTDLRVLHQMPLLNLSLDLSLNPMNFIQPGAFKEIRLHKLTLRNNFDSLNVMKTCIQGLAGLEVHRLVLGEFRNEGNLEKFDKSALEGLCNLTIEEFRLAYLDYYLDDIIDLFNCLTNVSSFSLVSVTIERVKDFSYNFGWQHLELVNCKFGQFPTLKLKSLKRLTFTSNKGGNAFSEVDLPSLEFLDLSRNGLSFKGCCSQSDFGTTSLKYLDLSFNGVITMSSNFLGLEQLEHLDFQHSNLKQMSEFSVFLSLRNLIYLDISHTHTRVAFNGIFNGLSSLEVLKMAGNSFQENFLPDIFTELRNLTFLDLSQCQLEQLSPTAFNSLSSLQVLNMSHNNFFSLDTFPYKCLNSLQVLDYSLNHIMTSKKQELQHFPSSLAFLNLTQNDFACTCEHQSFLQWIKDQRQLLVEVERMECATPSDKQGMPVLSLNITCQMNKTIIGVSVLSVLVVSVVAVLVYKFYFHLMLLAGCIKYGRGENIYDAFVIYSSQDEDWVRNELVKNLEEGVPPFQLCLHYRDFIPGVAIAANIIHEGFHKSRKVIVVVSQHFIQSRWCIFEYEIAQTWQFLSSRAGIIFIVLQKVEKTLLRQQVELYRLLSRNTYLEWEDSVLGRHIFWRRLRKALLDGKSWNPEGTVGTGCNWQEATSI

Structure (SMILES)	Activity [5]	Activity [6]	Activity [7]	Activity [8]	Activity [10]	Activity [11]	Activity (Splenocyte [1])	Activity (Splenocyte [2])	Activity (Splenocyte [3])	Activity (Splenocyte [4])	Activity (Splenocyte [9])	Activity (HEK293)	Activity (PBMC [12])	Activity (PBMC [13])	Activity (Mus musculus [14])	Activity (Mus musculus [15])	Activity (Mus musculus [16])	Activity (Mus musculus [17])	Activity (Mus musculus [19]) [%]	Activity (Mus musculus [20])	further results
CCCCCCCCCCCCNC(=O)[C@H](CS[C@@H]1[C@H](O)[C@@H](O)[C@@H](O)[C@H]2COC(=O)N21)NC(=O)CCCCCCCCCCC	Active	inactive	inactive	inactive	inactive	inactive	Active	inactive	inactive	inactive	Non-Toxic	Non-Toxic	inactive	inactive	Active	Active	Active	Active	50	Active	Activity (Mus musculus [21]): Active
CCCCCCCCCCCCNC(=O)[C@H](CO[C@@H]1[C@H](O)[C@@H](O)[C@H](O)[C@H]2COC(=O)N21)NC(=O)CCCCCCCCCCC	Active	inactive	inactive	inactive	inactive	inactive	Active	Active	inactive	inactive	Non-Toxic	Non-Toxic	Active	Active	Active	Active	Active	Active	50	Active	Activity [24]: 25.8%; Activity [25]: 54.9%; Activity [26]: 23.8%; Activity (BMDC [27]): Dose-Dependent Effect; Activity (BMDC [28]): inactive; Activity (Mus musculus [29]): Active; Activity (Mus musculus [30]): Active; fold change (FC) (Mus musculus [18]): 5; Activity (Mus musculus [21]): Active; Activity (Mus musculus [22]): Active; Activity (Mus musculus [23]): Active
CCCCCCCCCCCCNC(=O)[C@H](CS[C@@H]1[C@H](O)[C@@H](O)[C@H](O)[C@H]2COC(=O)N21)NC(=O)CCCCCCCCCCC	Active	inactive	inactive	inactive	inactive	inactive	Active	inactive	inactive	inactive	Non-Toxic	Non-Toxic	inactive	inactive	Active	Active	Active	Active	50	Active	Activity (Mus musculus [21]): Active

More lines, main results first:

Activity [5]	Activity [6]	Activity [7]	Activity [8]	Activity [10]	Activity [11]	Structure (SMILES)	Activity (Splenocyte [1])	Activity (Splenocyte [2])	Activity (Splenocyte [3])	Activity (Splenocyte [4])	Activity (Splenocyte [9])	Activity (HEK293)	Activity (PBMC [12])	Activity (PBMC [13])	Activity (Mus musculus [14])	Activity (Mus musculus [15])	Activity (Mus musculus [16])	Activity (Mus musculus [17])	Activity (Mus musculus [19]) [%]	Activity (Mus musculus [20])	further results
Active	inactive	inactive	inactive	inactive	inactive	CCCCCCCCCCCCNC(=O)[C@H](CO[C@@H]1[C@H](O)[C@@H](O)[C@@H](O)[C@H]2COC(=O)N21)NC(=O)CCCCCCCCCCC	Active	Active	inactive	inactive	Non-Toxic	Non-Toxic	Active	Active	Active	Active	Active	Active	50	Active	fold change (FC) (Mus musculus [18]): 10; Activity (Mus musculus [21]): Active; Activity (Mus musculus [22]): Active; Activity (Mus musculus [23]): Active
					inactive	CCCCCCCCCCCNC(=O)[C@H](CO[C@H]1O[C@H](CO)[C@H](O)[C@H](O)[C@H]1O)NC(=O)CCCCCCCCCCC	Active	Active	inactive	inactive											
